Laboratory results from US9765061B2, “Trail enhancers for the selective killing of cancer cells” (The Scripps Research Institute, priority 2013, dated 2017).

Columns and labels:
sXBP1 (UPR) = test: RT-PCR assay of spliced XBP1 mRNA (sXBP1) in macrophages; format: cell-based, mouse; conditions: FIG. 1D and 1E
Source text: FIG. 1: C12 induces the UPR in mammalian cells. (A and B). Comparison of the macrophage responsiveness to P. aeruginosa (P.a.), S. typhimurium (S.t), and S. aureus (S.a.). RT-PCR assay of XBP1 (A) and Western blot analysis (B) of p38, its phosphorylated form (p-p38) as well as phosphorylated forms of PERK (p-PERK) and eIF2α (p-eIF2α) in cell extracts after treatment with bacteria are shown. (C) Macrophages were stimulated with P. aeruginosa wild type (wt) or lasI mutant (ΔlasI), and cell extracts (total RNA or total protein) were prepared and analyzed as in (A and B). […] (F) Total RNA was prepared from lung of mice after inoculation of vehicle (-) or (C12) and analyzed in (D). […]
Among key biochemical signatures of the multicomponent ER stress pathway, known as the unfolded protein response (UPR), are the phosphorylation of the α-subunit of eukaryotic translation initiation factor-2 (eIF2α) and activation of the transcription factor XBP1/Hac1 (X-box binding protein-1 in metazoans and homologous to ATF/CREB in yeast, respectively) ^11. […] To initiate our studies, we exposed bone marrow-derived macrophages (BMDM) to these bacteria, and macrophage responsiveness was analyzed for biochemical markers of the UPR and the phosphorylation of the mitogen-activated protein kinase p38, as a common marker of TLR pathways. […]

HeLa cell line = test: PARP cleavage in HeLa cells; format: cell-based, human; conditions: FIG. 3C
Protocol: FIG. 3: Sensitivity of cancerous and non-cancerous cells to apoptosis induced by TNF, C12 or a combination of C12 and TNF. Cells were incubated with TNF, (C12) or a combination of TNF and (C12) as indicated, and the cleavage of PARP (an apoptotic marker) was determined by Western blot. (A and B) Breast cancer MCF-7 cells transfected with control vector (Vector) and vector expressing Bcl-2 or CLARP. (C) HeLa cell line. (D) Normal human bronchial epithelial cells (NHBE).
Similar experiments were conducted by using normal human bronchial epithelial cells and HeLa cell line as an example of transformed cells. We observed that both HeLa and normal cells were resistant to pro-apoptotic effects of TNF (FIG. 3C and 3D). […] In addition, two stimuli—C12 and TNF—work synergistically against cancerous cells, although normal cells stay intact.
Antibodies and Western blot analysis. Anti-eIF2α, phospho-eIF2α[…](p-eIF2α), p38, p-p38 (Thr180/Tyr132), p-RelA (Ser536), p-I κB ? 32/36), PARP 20 antibodies were purchased from Cell Signaling; anti-RelA, I κB α, IκBβ were from Santa Cruz Biotechnology. Cellular extracts were prepared and analyzed by Western blot assay as previously described.^E3

**Q.** Which “induction of sXBP1 / activation of the UPR” value (sXBP1 (UPR)) does the source give for `CCCCCCCCCC(=O)CC(=O)N[C@H]1CCOC1=O` [Compound 1, N-(3-oxo-dodecanoyl) homoserine lactone] here?
**A.** The value was “time- and dose-dependent induction of sXBP1”.

**Q.** What about the “cleavage of PARP, compound alone” value (HeLa cell line) of the same molecule?
**A.** The value was “induced the cleavage of PARP”.
